tested on: Pyricularia grisea; experiment: Fungicidal activity against Magnaporthe grisea in rice seedlings assessed as area of infection on leaves treated 24 hr prior to spore inoculation measured 5 days after the fungal challenge; assay type: functional

Compound | log(%)
CCc1ccc(NC(=O)Cc2cs/c(=N/c3ccc([N+](=O)[O-])cc3OC)n2C)cc1 | 1.81
Cn1c(CC(=O)Nc2ccc(Cl)cc2)cs/c1=N/c1ccc(-c2ccccc2)cc1 | 1.98
CC(C)Oc1ccc(/N=c2/scc(CC(=O)Nc3ccc(C(F)F)cc3)n2C)cc1 | 1.7
Cn1c(CC(=O)Nc2ccc(OC(F)(F)F)cc2)cs/c1=N\c1cccc(C(F)(F)F)c1 | 1.7
Cn1c(CC(=O)Nc2ccc(Br)cc2)cs/c1=N\c1cccc(F)c1 | 1.9
COc1ccc(/N=c2\scc(CC(=O)Nc3ccc(C(F)F)cc3)n2C)cc1 | 1.4
CCCCc1ccc(NC(=O)Cc2cs/c(=N\c3cccc(F)c3)n2C)cc1 | 1
Cn1c(CC(=O)Nc2ccc(OC(F)(F)F)cc2)cs/c1=N\c1cccc(Br)c1 | 1.7
CCc1ccc(NC(=O)Cc2cs/c(=N\c3ccc(Br)cc3F)n2C)cc1 | 2
COc1ccc(NC(=O)Cc2cs/c(=N/c3ccc([N+](=O)[O-])cc3)n2C)cc1 | 2
CCCCCCc1ccc(/N=c2/scc(CC(=O)Nc3ccc(CC)cc3)n2C)cc1 | 2
CCOc1ccc(NC(=O)Cc2cs/c(=N\c3ccc(F)cc3F)n2C)cc1 | 1.9
COc1ccc(NC(=O)Cc2cs/c(=N\c3ccc(Cl)c(C(F)(F)F)c3)n2C)cc1 | 2
COc1ccc(NC(=O)Cc2cs/c(=N\c3cccc(C(F)(F)F)c3)n2C)cc1 | 2
COc1ccc(NC(=O)Cc2cs/c(=N\c3ccccc3C(C)C)n2C)cc1 | 1.9
COc1ccc(/N=c2/scc(CC(=O)Nc3ccc(OC(F)(F)F)cc3)n2C)cc1 | 1.4

Compound | log(%)
CCCCOc1ccc(NC(=O)Cc2cs/c(=N/c3ccc(C(F)(F)F)cc3)n2C)cc1 | 1
Cn1c(CC(=O)Nc2ccc(Oc3ccccc3)cc2)cs/c1=N/c1ccc(Oc2ccccc2)cc1 | 1.4
COc1ccccc1/N=c1\scc(CC(=O)Nc2ccc(OC(F)(F)F)cc2)n1C | 0.7
Cn1c(CC(=O)Nc2ccc(C(F)F)cc2)cs/c1=N\c1ccc(Br)cc1 | 1.4
Cn1c(CC(=O)Nc2ccc([N+](=O)[O-])cc2)cs/c1=N/c1ccc(C#N)cc1 | 0.7
CCc1ccc(NC(=O)Cc2cs/c(=N/c3ccc(CC#N)cc3)n2C)cc1 | 2
CCc1ccc(NC(=O)Cc2cs/c(=N/c3ccc(C(C)=O)cc3)n2C)cc1 | 2
Cn1c(CC(=O)Nc2ccc([N+](=O)[O-])cc2)cs/c1=N/c1ccc(F)cc1 | 0.9
CCc1ccc(NC(=O)Cc2cs/c(=N\c3ccc(OC)cc3C)n2C)cc1 | 2
CC(C)c1ccc(NC(=O)Cc2cs/c(=N/c3ccc(C(F)(F)F)cc3)n2C)cc1 | 1.8
CCc1ccc(NC(=O)Cc2cs/c(=N/c3ccc(Cl)cc3)n2C)cc1 | 2
CCc1ccc(NC(=O)Cc2cs/c(=N\c3ccc(C)cc3Cl)n2C)cc1 | 2
CCCCc1ccc(NC(=O)Cc2cs/c(=N\c3ccc(F)c(Cl)c3)n2C)cc1 | 1.3
Cn1c(CC(=O)Nc2ccc(OC(F)(F)F)cc2)cs/c1=N\c1ccc(F)cc1 | 0.9
Cn1c(CC(=O)Nc2ccc(Oc3ccccc3)cc2)cs/c1=N\c1cccc(Br)c1 | 0.9
CCCCOc1ccc(NC(=O)Cc2cs/c(=N\c3cccc(F)c3)n2C)cc1 | 1

From ChEMBL document CHEMBL3045912, “Prediction of fungicidal activities of rice blast disease based on least-squares support vector machines and project pursuit regression” (2008)
